From patent US20240050406A1, “COMPOSITION COMPRISING OXIRACETAM FOR PREVENTING OR TREATING MUSCULAR DISEASE” (KSB TUGEN INC., priority 2021, published 2024)

How the values were obtained:
C2C12 myotubes = experiment: Myotube diameter in TNF-α muscular atrophy cell model (Experimental Example 7); assay type: cell-based, mouse
Protocol: A mouse-derived C2C12 cell line was provided from the American Type Culture Collection (ATCC, CRL-1772; Manassas, VA, USA) and cultured at 37° C. in 5% CO2. In the proliferation phase of the cells before differentiation, high concentration glucose Dulbecco's modified Eagle's medium (DMEM) containing 1% penicillin/streptomycin and 10% fetal bovine serum (FBS) medium were used, and in the differentiation induction, the FBS medium was replaced with a 2% horse serum (HS)-containing medium. The C2C12 myoblasts were seeded into a 96 well culture plate and a 6 well culture plate at 2×10^5/well and 5×10^3/well, respectively, and cultured at 37° C. in a CO2 incubator. When the confluency reached approximately 90%, the medium was replaced with 2% horse serum (HS)-containing DMEM to induce differentiation of myoblasts. After 5 days, the C2C12 myotubes that had differentiated were treated with 10 ng/ml TNF-α, which is an inflammatory factor, for 48 hours to cause myotube atrophy, thereby creating a muscular atrophy cell model, TNF-α-treated group (TNF-α). During the TNF-α treatment, 10 μM oxiracetam was treated to create an oxiracetam-treated group (Oxiracetam 10 μM), cells that were not treated during the same period were prepared as a control. Two days after TNF-α and oxiracetam treatment, each of the TNF-α-treated group (TNF-α), the oxiracetam-treated group (Oxiracetam 10 μM) and the control was treated with an ATP detection reagent at room temperature, and then luminescence was measured using a mitochondrial ToxGlo™ assay kit (Promega). In addition, the TNF-α-treated group (TNF-α), the oxiracetam-treated group (Oxiracetam 10 μM) and the control were photographed using an optical microscope and the diameter of a myotube cell in each group were measured and compared. Statistical processing was performed using GraphPad Prism (GraphPad Software Inc., San Diego, CA, USA).

[1] = tested on: animal model in which muscular atrophy is induced by dexamethasone; experiment: Comparison with dementia drugs in dexamethasone muscular atrophy model (Experimental Example 5); assay type: in vivo, ICR mice
Source text: For an experimental group in the present invention, oxiracetam having a structure of Formula 1 was purchased from Tokyo Chemical Industry (Japan; Product No. 00398, CAS RN:62613-82-5, purity: 96%) and used. Mirtazapine and olanzapine were purchased from Tokyo Chemical Industry (Japan, Product Nos. M2151, 00393, purity: 96%) and used.
As experimental animals, 7-week-old male ICR mice were purchased and used. Until the day of the experiment, general feed (EEGJ30060: Cargill Agri Purina, Seongnam, Korea) and water were sufficiently supplied to the experimental animals, and the animals were acclimated for 1 week under an environment of a temperature of 23±2° C., a humidity of 55±10%, and a light-dark cycle of 12 hours-12 hours and used in the experiment.
After the acclimation period for the experimental animals, to create a muscular atrophy model, the mice were randomly divided into groups of 7 animals, such as a control (vehicle, n=7), a dexamethasone-treated group (n=7), and a drug-administered group (n=7). The groups except for the control were intraperitoneally injected dexamethasone at a dose of 10 mg/kg from day 7 to day 21 for 14 days. In the case of the drug-administered group, 7 days before the intraperitoneal administration of dexamethasone, the drug was orally administered using a Zonde needle at a dose of 30 or 10 mg/kg/day once a day for 21 days. During the same period, the control was administered no drug, and 100 μL of normal saline was orally administered at a time. To the dexamethasone-treated group (dexamethasone excipient, CMC), instead of the drug, 100 μL of a 0.5% carboxymethylcellulose (CMC) solution was administered. This is to set the effect on the excipient as a blank.
To measure grip strength, a grip strength test was performed. The maximum force presented when the forelimbs of an animal model of each group could no longer hold the rod by pulling the tail horizontally while holding the tail of the animal model and holding the rod of a device with both front paws was considered to be grip strength (N). Grip strength adaptation training was performed at least three times before drug administration. After measurement before drug administration (day 0) and on day 20 after drug administration began, grip strength variation (%) after drug administration began (day 20) with respect to that before drug administration (day 0) was calculated.
The lean body mass of the gastrocnemius muscle (GS) and the lean body mass of the tibialis anterior (TA) for each group were measured every 7 days. Specifically, animal models of each group were anesthetized using 3% isoflurane, fixed to a photographing bed and then photographed. During photographing, the respiratory rates and body temperatures of the animal models were measured with an animal monitoring system (SA Instruments, USA).
The whole body of the animal model was photographed through dual energy X-ray absorptiometry (DEXA) using iNSiGHT VET DXA (Osteosys, KR), and the lean body mass of each of the gastrocnemius muscle (GS) and the tibialis anterior (TA) was measured and calculated from the two-dimensional images of the gastrocnemius muscle (GS) and the tibialis anterior (TA) by a program using the region of interest (ROI).
Statistical processing was performed using GraphPad Prism (GraphPad Software Inc., San Diego, CA, USA). The results of each repeated experiment were expressed as mean±standard error of mean, and analyzed using the analysis of variance (Tukey's test), and statistical significance was acknowledged when the P-value was 0.05 or less.

[2] = oxiracetam 30, mirtazapine 10, olanzapine 10 mg/kg/day oral 21 days + dexamethasone, DEXA every 7 days

In the case of `NC(=O)CN1CC(O)CC1=O` (racemic) [oxiracetam, (RS)-2-(4-hydroxy-2-oxopyrrolidin-1-yl)acetamide], the “diameter of a myotube” value (C2C12 myotubes; TNF-α 10 ng/ml 48 h + oxiracetam 10 μM, compared to TNF-α-treated group) is reported as “significant increase”, the “diameter of a myotube relative to control” value (C2C12 myotubes; TNF-α 10 ng/ml 48 h with oxiracetam 10 μM or 0 μM, relative to non-treated control) is reported as “recovers to a level similar to the control” and the “change in grip strength” value ([1]; oxiracetam 30, mirtazapine 10, olanzapine 10 mg/kg/day oral 21 days + dexamethasone 10 mg/kg i.p. day 7-21) is reported as “significantly recovers”. The “lean body mass of the gastrocnemius muscle (GS)” value [1, 2] was “significantly recovers” and the “lean body mass of the tibialis anterior (TA)” value [1, 2] was “significantly recovers”.
